In PMC8161390, “Salinity Alters Toxicity of Commonly Used Pesticides in a Model Euryhaline Fish Species (Menidia beryllina)” (Toxics, 2021):
In brackets after ≈: the same amount, converted by molar mass.

test system: not given; assay: not given; set-up: method as in earlier work; details: cited from earlier work

| Structure (SMILES) | Water Solubility |
| --- | --- |
| Nc1c(Cl)cc([N+](=O)[O-])cc1Cl [Dicloran, dicloran] | 6.3 µg/mL |
| Cc1c(COC(=O)[C@@H]2[C@H](/C=C(\Cl)C(F)(F)F)C2(C)C)cccc1-c1ccccc1 (racemic) [Bifenthrin, bifenthrin] | 0.1 µg/mL |
| CC(C)(C)C(=O)C(Oc1ccc(Cl)cc1)n1cncn1 (centres unmarked) [Triadimefon, triadimefon] | 64 µg/mL |
| CCCCC(C#N)(Cn1cncn1)c1ccc(Cl)cc1 (centres unmarked) [Myclobutanil, myclobutanil] | 132 µg/mL |
| C[n+]1ccc(-c2cc[n+](C)cc2)cc1 [Paraquat, paraquat dichloride hydrate] | 620000 µg/mL |

test system: not given; assay: not given; details: distilled water; irradiation of a 300 W mercury bulb; cited from earlier work

| Structure (SMILES) | half-life |
| --- | --- |
| CC(C)(C)C(=O)C(Oc1ccc(Cl)cc1)n1cncn1 (centres unmarked) [Triadimefon, triadimefon] | 0.9 h |

same assay, conditions: seawater; irradiation of a 300 W mercury bulb; cited from earlier work

| Structure (SMILES) | half-life |
| --- | --- |
| CC(C)(C)C(=O)C(Oc1ccc(Cl)cc1)n1cncn1 (centres unmarked) [Triadimefon, triadimefon] | 2.97 h |

test system: not given; assay: not given; set-up: method as in PMID 18829159; details: reported environmental persistence; cited from earlier work

| Structure (SMILES) | environmental half-life |
| --- | --- |
| C[n+]1ccc(-c2cc[n+](C)cc2)cc1 [Paraquat, paraquat dichloride hydrate] | around two |

test system: Rainbow Trout (Oncorhynchus mykiss); assay: not given; details: freshwater; 96-h acute; range of minimum to maximum reported LC50 values; ref U.S. EPA ECOTOX database; cited from earlier work

| Structure (SMILES) | FW LC50 |
| --- | --- |
| Cc1c(COC(=O)[C@@H]2[C@H](/C=C(\Cl)C(F)(F)F)C2(C)C)cccc1-c1ccccc1 (racemic) [Bifenthrin, bifenthrin] | 0.15 to 14.7 ng/mL |
| CCCCC(C#N)(Cn1cncn1)c1ccc(Cl)cc1 (centres unmarked) [Myclobutanil, myclobutanil] | 4200 to 5270 ng/mL |
| CCOP(=S)(OCC)Oc1nc(Cl)c(Cl)cc1Cl [Chlorpyrifos, chlorpyrifos] | <1 to 301 ng/mL |
| C[n+]1ccc(-c2cc[n+](C)cc2)cc1 [Paraquat, paraquat dichloride hydrate] | 15000 to 38680 ng/mL |

test system: not listed separately; assay: Inland Silverside embryo-to-larva 12-day exposure bioassay (mortality, dose-response); details: Menidia beryllina (Inland Silverside), in vivo, 5 PSU LC50, 5 PSU salinity, <24 hpf embryos to 96 hph larvae, nominal concentrations
Experimental: (§1) Inland Silverside embryos were removed from the spawning substrate, assessed for fertilization with a VWR VistaVision Dissecting Scope (VWR International, Radnor, PA, USA), and randomly placed in exposure wells with 1 mL of clean artificial seawater (ASW) made from reverse osmosis water and Instant Ocean Sea Salt (Spectrum Brands, Blacksburg, VA, USA). Once all well plates (Supplemental Material and Video S1) were loaded, each test was initiated by pouring the appropriate exposure solution into the well plate until embryos were submerged in 8 mL of exposure solution. Organisms were exposed from <24 h post fertilization (hpf) as embryos to 96 h post hatch (hph) larvae for a total exposure period of 12 days. […] After hatching, fish larvae, which still had their yolk sacs, were fed Gemma Microdiet (Skretting, Westbrook, ME, USA) once per day and were allowed to feed for at least two hours prior to water changes. […] Temperature, pH, salinity, and dissolved oxygen were measured daily before and after water changes using a YSI Professional Plus Quatro water quality meter (YSI Incorporated, Yellow Springs, OH, USA) and API Ammonia Test Kit and can be found in Table S1.
(§2) This suite of chosen contaminants represents commonly used pesticides with a range of log KOW values, water solubilities, and target organs. Six concentrations (Table 1), including a solvent control, were assessed per test to determine the appropriate dose–response relationships. Initial test concentrations were determined from existing mortality data from the United State EPA ECOTOX database. Where testing on saltwater species was not available, freshwater data were used to supplement. […] The fourth concentration was selected based off existing mortality data and increased by one magnitude to the fifth concentration to ensure mortality. All lower concentrations were decreased by one subsequent magnitude to ensure an appropriate dose response could be achieved.
(§3) Chemical stock solutions were made at the start of each test from which new exposure solutions were made daily in ASW immediately prior to water changes. There were six replicates per concentration and two organisms per replicate. […] At the end of the exposure period, the final survival data were recorded, and larval fish were humanely sacrificed. Exposures were approved and conducted under the Oregon State University Institutional Animal Care and Use Committee (IACUC) protocol #0035.
(§4) Statistical analysis was conducted in R version 4.0 (Vienna, Austria) and R Studio version 1.3.1093 (Boston, MA, US). The dose–response analysis consisted of fitting two-parameter log-logistic models to all seven compounds at both salinities (14 fits in total) using maximum likelihood optimization in the package drc version 3.0-1 [42]. […] In the Monte Carlo procedure, the salinity treatments for all of the replicates in the dataset were permuted (keeping the sample sizes for each salinity the same), then new dose–response curves were fit to each salinity treatment. The p-value testing whether the observed difference in LC10 and LC50 values was greater than that expected by random chance was calculated as the proportion of Monte Carlo simulations in which the difference in LC values was greater than the original observed difference. […] All values are reported as the mean ± standard error. All statistical analysis and dose–response curves were made and reported with nominal concentrations.

| Structure (SMILES) | LC50 at 12 days |
| --- | --- |
| Cc1c(COC(=O)[C@@H]2[C@H](/C=C(\Cl)C(F)(F)F)C2(C)C)cccc1-c1ccccc1 (racemic) [Bifenthrin, bifenthrin] | 0.16 ng/mL (≈ 0.000378 µM) |
| CCCC(Cn1cncn1)c1ccc(Cl)cc1Cl (centres unmarked) [Penconazole, penconazole] | 107 ng/mL (≈ 0.377 µM) |
| CCCCC(C#N)(Cn1cncn1)c1ccc(Cl)cc1 (centres unmarked) [Myclobutanil, myclobutanil] | 3760 ng/mL (≈ 13 µM) |
| CCOP(=S)(OCC)Oc1nc(Cl)c(Cl)cc1Cl [Chlorpyrifos, chlorpyrifos] | 8.03 ng/mL (≈ 0.0229 µM) |
| C[n+]1ccc(-c2cc[n+](C)cc2)cc1 [Paraquat, paraquat dichloride hydrate] | 37500 ng/mL |

same assay, conditions: Menidia beryllina (Inland Silverside), in vivo, 15 PSU LC50, 15 PSU salinity, <24 hpf embryos to 96 hph larvae, nominal concentrations

| Structure (SMILES) | LC50 at 12 days |
| --- | --- |
| Cc1c(COC(=O)[C@@H]2[C@H](/C=C(\Cl)C(F)(F)F)C2(C)C)cccc1-c1ccccc1 (racemic) [Bifenthrin, bifenthrin] | 0.12 ng/mL (≈ 0.000284 µM) |
| CCCC(Cn1cncn1)c1ccc(Cl)cc1Cl (centres unmarked) [Penconazole, penconazole] | 20.2 ng/mL (≈ 0.0711 µM) |
| CCCCC(C#N)(Cn1cncn1)c1ccc(Cl)cc1 (centres unmarked) [Myclobutanil, myclobutanil] | 1550 ng/mL (≈ 5.37 µM) |
| CCOP(=S)(OCC)Oc1nc(Cl)c(Cl)cc1Cl [Chlorpyrifos, chlorpyrifos] | 2.4 ng/mL (≈ 0.00685 µM) |
| C[n+]1ccc(-c2cc[n+](C)cc2)cc1 [Paraquat, paraquat dichloride hydrate] | 18100 ng/mL |

test system: Inland Silverside (Menidia beryllina); assay: as above; details: 5 PSU salinity; <24 hpf embryos to 96 hph larvae, 12 days; nominal concentrations
Experimental: as §1, §2, §3, §4

| Structure (SMILES) | 5 PSU LC10 |
| --- | --- |
| Cc1c(COC(=O)[C@@H]2[C@H](/C=C(\Cl)C(F)(F)F)C2(C)C)cccc1-c1ccccc1 (racemic) [Bifenthrin, bifenthrin] | 0.0227 ng/mL |
| CCCC(Cn1cncn1)c1ccc(Cl)cc1Cl (centres unmarked) [Penconazole, penconazole] | 0.235 ng/mL |
| CCOP(=S)(OCC)Oc1nc(Cl)c(Cl)cc1Cl [Chlorpyrifos, chlorpyrifos] | 0.137 ng/mL |
| C[n+]1ccc(-c2cc[n+](C)cc2)cc1 [Paraquat, paraquat dichloride hydrate] | 54.7 ng/mL |

same assay, conditions: 15 PSU salinity; <24 hpf embryos to 96 hph larvae, 12 days; nominal concentrations

| Structure (SMILES) | 15 PSU LC10 |
| --- | --- |
| Cc1c(COC(=O)[C@@H]2[C@H](/C=C(\Cl)C(F)(F)F)C2(C)C)cccc1-c1ccccc1 (racemic) [Bifenthrin, bifenthrin] | 0.00533 ng/mL |
| CCCC(Cn1cncn1)c1ccc(Cl)cc1Cl (centres unmarked) [Penconazole, penconazole] | 0.0244 ng/mL |
| CCOP(=S)(OCC)Oc1nc(Cl)c(Cl)cc1Cl [Chlorpyrifos, chlorpyrifos] | 0.0393 ng/mL |
| C[n+]1ccc(-c2cc[n+](C)cc2)cc1 [Paraquat, paraquat dichloride hydrate] | 24.5 ng/mL |

test system: not given; assay: not given; details: cited from earlier work; remark: another data set of the same source

| Structure (SMILES) | log KOW |
| --- | --- |
| Nc1c(Cl)cc([N+](=O)[O-])cc1Cl [Dicloran, dicloran] | 2.8 |
| Cc1c(COC(=O)[C@@H]2[C@H](/C=C(\Cl)C(F)(F)F)C2(C)C)cccc1-c1ccccc1 (racemic) [Bifenthrin, bifenthrin] | 6.6 |
| CC(C)(C)C(=O)C(Oc1ccc(Cl)cc1)n1cncn1 (centres unmarked) [Triadimefon, triadimefon] | 3.2 |
| CCCC(Cn1cncn1)c1ccc(Cl)cc1Cl (centres unmarked) [Penconazole, penconazole] | 3.7 |
| CCCCC(C#N)(Cn1cncn1)c1ccc(Cl)cc1 (centres unmarked) [Myclobutanil, myclobutanil] | 2.8 |
| CCOP(=S)(OCC)Oc1nc(Cl)c(Cl)cc1Cl [Chlorpyrifos, chlorpyrifos] | 4.7 |
| C[n+]1ccc(-c2cc[n+](C)cc2)cc1 [Paraquat, paraquat dichloride hydrate] | −4.5 |

same assay, conditions: values quoted in discussion of Delta smelt study; cited from earlier work

| Structure (SMILES) | log KOW |
| --- | --- |
| CC1(C)C(C=C(Cl)Cl)C1C(=O)OCc1cccc(Oc2ccccc2)c1 (centres unmarked) [permethrin] | 6.9 |
